Experimental data reported in patent publication US20230348369A1 (Cytokinetics, Inc., priority 2020, published 2023).
Where two headings read alike, the source gives them in different places.

Columns and labels:
endogenous NAMPT = target: T1, endogenous NAMPT (Homo sapiens, UniProt P43490); assay: Cellular NAD+ modulation assay in neuroblastoma SH-SY5Y cells; type: cell-based
T1 construct: stimulate the endogenous NAMPT in a native cellular environment; endogenous in cells; host or cells: SH-SY5Y neuroblastoma cells
Description: The compounds described herein were also assayed for their ability to stimulate the endogenous NAMPT in a native cellular environment in the cellular NAD+ modulation assay, which measures the ability of the compound to modulate cellular NAD levels. Increased levels of NAD are expected by compounds that permeate the cells and activate the catalytic activity of the endogenous NAMPT.
Neuroblastoma SH-SY5Y cells were grown in 1:1 mixture of Eagle's Minimum Essential Medium and F12 Medium, along with 10% fetal bovine serum, in a humidified incubator with an atmosphere of 95% air and 5% CO2 at 37° C. The assays were initiated by plating 20 μL of SH-SY5Y cells in culture medium with 0.1% fetal bovine serum, at a density of 5000 cells per well to a 384-well Corning™ BioCoat™ Poly-D-Lysine Multiwell Plates. The plates were incubated in the 37° C. incubators for a period of 5 hours. Compounds in DMSO were added to the plates in a volume of 120 nL using the Labcyte Echo Liquid Handlers. […] The plates are then incubated for 40 hours. 30 μL of a readout-solution containing 0.2 U/mL Diaphorase enzyme, 40 uM resazurin, 10 uM FMN, 0.8 U/mL Alcohol dehydrogenase, 3% ethanol, 0.4 mg/mL bovine serum albumin, 0.2% Triton X-100 in 100 mM Tris-HCl, 30 mM EDTA, pH 8.4. The plates were read for fluorescence (Excitation/Emission=540 nm/590 nm) using an EnVision plate reader after 60 mins of incubation at ambient temperature.

human NAMPT = human NAMPT (Homo sapiens, UniProt P43490); assay: Human recombinant enzyme assay (NMN fluorescence biochemical assay, activation of NAMPT)
Method in brief: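 NMN production is detected fluorometrically (Ex 355/Em 460 nm) 40 min after acetophenone, KOH and formic acid derivatization. Reactions ran 60 min at ambient temperature: 6 nM human NAMPT, nicotinamide 150 μM, PRPP 20 μM, ATP 2.5 mM, buffered at pH 7.2 with 50 mM HEPES plus DTT, CHAPS, NaCl and 100 mM MgCl2.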

[1] = Table B, SH-SY5Y cells, cellular NAD levels, doxorubicin, 40 hours
[2] = Table A, human recombinant NAMPT, NMN formation, 60 min
[3] = Table B, SH-SY5Y cells, cellular NAD levels, doxorubicin, 40 hours, read-out: EC50
[4] = Table A, human recombinant NAMPT, NMN formation, 60 min, read-out: EC50 Human

human NAMPT, sequence (P43490 whole entry): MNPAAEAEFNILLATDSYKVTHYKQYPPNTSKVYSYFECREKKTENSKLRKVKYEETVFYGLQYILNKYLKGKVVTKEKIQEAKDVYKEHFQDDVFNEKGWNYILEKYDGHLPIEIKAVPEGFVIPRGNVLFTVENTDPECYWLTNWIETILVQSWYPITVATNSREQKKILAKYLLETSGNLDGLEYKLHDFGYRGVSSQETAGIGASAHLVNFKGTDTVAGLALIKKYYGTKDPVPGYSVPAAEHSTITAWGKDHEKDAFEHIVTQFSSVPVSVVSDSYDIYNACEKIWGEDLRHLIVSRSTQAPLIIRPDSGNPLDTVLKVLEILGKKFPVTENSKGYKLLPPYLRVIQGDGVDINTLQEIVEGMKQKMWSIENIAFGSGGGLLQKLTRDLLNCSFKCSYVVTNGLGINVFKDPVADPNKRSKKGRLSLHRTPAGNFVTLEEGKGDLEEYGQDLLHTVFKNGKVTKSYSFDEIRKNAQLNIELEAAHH
T1 sequence (P43490 whole entry): as above

| Structure (SMILES) | EC50 (endogenous NAMPT) [µM] | AC0.3 (endogenous NAMPT; [1]) [µM] | EC50 (human NAMPT) [µM] | AC1.4 Human (human NAMPT; [2]) [µM] | EC50 (endogenous NAMPT; [3]) [µM] | EC50 (human NAMPT; [4]) [µM] |
| --- | --- | --- | --- | --- | --- | --- |
| O=C(NCCCCC1CCN(C(=O)c2ccccc2)CC1)NCc1ccc(Cl)cc1 [Compound 16, 1-(4-(1-benzoylpiperidin-4-yl)butyl)-3-(4-chlorobenzyl)urea] | 0.1 | 0.1 | 0.3 | 0.1 |  |  |
| COc1ccc(CNC(=O)NC2CC3(C2)CC(C(=O)N2CCCc4cnccc42)C3)cc1 (centres unmarked) [Compound 90, 1-(4-methoxybenzyl)-3-(6-(1,2,3,4-tetrahydro-1,6-naphthyridine-1-carbonyl)spiro[3.3]heptan-2-yl)urea] |  | 0.9 |  | 0.3 | 0.8 | 5.1 |
| NC(=O)c1ccc(CNC(=O)NCCCCC2CCN(C(=O)c3ccccc3)CC2)cc1 [Compound 19, 4-((3-(4-(1-benzoylpiperidin-4-yl)butyl)ureido)methyl)benzamide] |  | 1.6 |  | 0.1 | 1.3 | 1.8 |
| Cc1ccc(C(=O)NC[C@H]2C[C@]3(C2)C[C@@H](NC(=O)NCc2ccc(Cl)cc2)C3)cn1 (some centres unmarked) [Compound 249, N-((6-(3-(4-chlorobenzyl)ureido)spiro[3.3]heptan-2-yl)methyl)-6-methyl-nicotinamide] |  |  |  |  | 0.9 | 2.7 |
| CC(C)(C)OC(=O)N1CCC2(CC1)CC2CNC(=O)NCc1ccc(CO)cc1 (centres unmarked) [Compound 29, tert-butyl 1-((3-(4-(hydroxymethyl)benzyl)ureido)methyl)-6-azaspiro[2.5]octane-6-carboxylate] |  |  |  |  | 2.2 | 26.7 |
| COc1ccc(CNC(=O)NC2CC3(C2)CC(C(=O)N(C)c2ccccc2)C3)cc1 (centres unmarked) [Compound 87, 6-(3-(4-methoxybenzyl)ureido)-N-methyl-N-phenylspiro[3.3]heptane-2-carboxamide] |  | 3.4 |  | 0.6 | 2.4 | 27.4 |
| COc1ccc(CNC(=O)NC2CC3(C2)CC(C(=O)N2CCCc4cc(C)ccc42)C3)cc1 (centres unmarked) [Compound 84, 1-(4-methoxybenzyl)-3-(6-(6-methyl-1,2,3,4-tetrahydroquinoline-1-carbonyl)spiro[3.3]heptan-2-yl)urea] |  | 5.3 |  | 0.1 | 12.7 | 2.8 |
| COc1ccc(CNC(=O)NC2CC3(C2)CN(C(=O)c2ccc(C)nc2)C3)cc1 [Compound 138, 1-(4-methoxybenzyl)-3-(2-(6-methylnicotinoyl)-2-azaspiro[3.3]heptan-6-yl)urea] |  | 9.1 |  | 5.7 | 10.1 | 43.2 |
| COc1ccc(CNC(=O)NC2CC3(CC(Cn4ncc5ccccc54)C3)C2)cc1 (centres unmarked) [Compound 134] |  | 8.0 |  | 0.6 | 12.7 | 7.2 |
| COc1ccc(CNC(=O)NC2CC3(C2)CC(C(=O)N2Cc4ccccc4C2)C3)cc1 (centres unmarked) [Compound 73, 1-(6-(isoindoline-2-carbonyl)spiro[3.3]heptan-2-yl)-3-(4-methoxybenzyl)urea] |  | 0.8 |  | 1.2 | 0.8 | 7.7 |
| COc1ccc(CNC(=O)NC2CC3(C2)CC(NC(=O)OC(C)(C)C)C3)cc1 (centres unmarked) [Compound 7, tert-butyl (6-(3-(4-methoxybenzyl)ureido)spiro[3.3]heptan-2-yl)carbamate] |  | 2.4 |  | 5.1 | 4.7 | 26.3 |
| O=C(NCc1ccc(Cl)cc1)NC1CC2(C1)CC(NS(=O)(=O)Cc1ccccc1Cl)C2 (centres unmarked) [Compound 120, N-(6-(3-(4-chlorobenzyl)ureido)spiro[3.3]heptan-2-yl)-1-(2-chlorophenyl)methanesulfonamide] |  | 0.2 |  | 0.5 | 0.3 | 2.6 |
| O=C(NCc1ccc(Cl)cc1)NC1CC2(C1)CC(NS(=O)(=O)c1ccccc1)C2 (centres unmarked) [Compound 121] | 1.2 | 0.6 | 5.7 | 1.5 |  |  |
| COc1ccc(CNC(=O)NCCCCC2CCN(C(=O)c3ccccc3C)CC2)cc1 [Compound 322, 1-(4-methoxybenzyl)-3-(4-(1-(2-methylbenzoyl)piperidin-4-yl)butyl)urea] |  | 0.2 |  | 0.1 | 0.3 | 2.3 |
| Cc1ncccc1C(=O)NC1CC2(CC(NC(=O)NCc3ccc(Cl)cc3)C2)C1 (centres unmarked) [Compound 203, N-(6-(3-(4-chlorobenzyl)ureido)spiro[3.3]heptan-2-yl)-2-methylnicotinamide] |  | 8.9 |  | 8.2 | 10 | 34.3 |
| O=C(NCc1ccc(Cl)cc1)NC1CC2(CC(Cc3ccncc3)C2)C1 (centres unmarked) [Compound 329, 1-(4-chlorobenzyl)-3-(6-(pyridin-4-ylmethyl)spiro[3.3]heptan-2-yl)urea] |  | 0.1 |  | 62.5 | 0.1 | > 62.5 |
| O=C(NCCCCC1CCN(C(=O)c2ccccc2)CC1)NCc1cnco1 [Compound 23, 1-(4-(1-benzoylpiperidin-4-yl)butyl)-3-(oxazol-5-ylmethyl)urea] |  | 0.3 |  | 0.1 | 0.3 | 1.4 |
| Cc1ccc(C(=O)N2CC3(CC(NC(=O)NCc4ccc(Cl)cc4)C3)C2)cc1 [Compound 206, 1-(4-chlorobenzyl)-3-(2-(4-methylbenzoyl)-2-azaspiro[3.3]heptan-6-yl)urea] |  | 0.2 |  | 2.2 | 0.5 | 4.3 |
| CC(C)(C)OC(=O)N1CCC2(CC1)CC2CNC(=O)NCc1ccc(Cl)cc1 (centres unmarked) [Compound 27, tert-butyl 1-((3-(4-chlorobenzyl)ureido)methyl)-6-azaspiro[2.5]octane-6-carboxylate] | 5.8 |  | 21.5 |  |  |  |
| Cc1ccc(C(=O)N2CC3(CC(NC(=O)NCc4ccc(C(N)=O)cc4)C3)C2)cc1 [Compound 211, 4-((3-(2-(4-methylbenzoyl)-2-azaspiro[3.3]heptan-6-yl)ureido)methyl)benzamide] |  | >20.1 |  | 0.5 |  | 27.8 |
| N#Cc1ccccc1C(=O)NC1CC2(CC(NC(=O)NCc3ccc(Cl)cc3)C2)C1 (centres unmarked) [Compound 212, N-(6-(3-(4-chlorobenzyl)ureido)spiro[3.3]heptan-2-yl)-2-cyanobenzamide] | 0.1 | 0.3 | 6 | 7.2 |  |  |
| O=C(NCCCCC1CCN(C(=O)c2ccccc2)CC1)NCc1ccc(CO)cc1 [Compound 22, 1-(4-(1-benzoylpiperidin-4-yl)butyl)-3-(4-(hydroxymethyl)benzyl)urea] |  | 0.4 |  | 0.1 | 0.1 | 1.1 |
| Cc1cccc(C(=O)N2CC[C@]3(C2)C[C@@H](NC(=O)NCc2ccc(Cl)cc2)C3)c1 [Compound 161, 1-(4-chlorobenzyl)-3-((2r,4s)-6-(3-methylbenzoyl)-6-azaspiro[3.4]octan-2-yl)urea] |  | 0.3 |  | 7.5 | 0.8 | 15.7 |
| COc1ccc(CNC(=O)NCCCCC2CCN(C(=O)c3ccccc3)CC2)cc1 [Compound 20, 1-(4-(1-benzoylpiperidin-4-yl)butyl)-3-(4-methoxybenzyl)urea] |  | 0.4 |  | 0.2 | 13.9 | 4.7 |
